Results as given in patent EP3454821B1, “MICELLES OF D-ALPHA-TOCOPHERYL POLYETHYLENE GLYCOL 1000 SUCCINATE” (Phytoceutical Limited, priority 2016, dated 2017).
Entries after “also recorded” stand apart in the source; their conditions may differ.

Assay: Dissolution of Retinol in water
Format: physicochemical
Conditions: without TPGS
Description: All attempts to dissolve Retinol in water were unsuccessful except when using a micellar formulation with TPGS, as per the method described in Example 1.
Retinol. No research was undertaken on Objective 2 because Retinol is insoluble in water.

CC1=C(/C=C/C(C)=C/C=C/C(C)=C/CO)C(C)(C)CCC1 [Retinol]
solubility in water: insoluble; also recorded: unsuccessful
